1 compound from publication PMC11588247, “Antimicrobial and antioxidant activities of peptide derived from turmeric plant (Curcuma longa L)” (PLOS ONE, 2024) can be followed below.

Assay type in all cases: cell-based
The test system of assay [1] is Bacillus subtilis (ATCC 6633). The assay is described as follows: Antimicrobial activity assay (broth culture, MTT read-out). The following applies: ATCC6633, sample 100 μg/mL, 6 h at 37°C, MTT OD570 vs inoculated broth control, read-out: Inhibitory Percentage (Means±SD), Bacillus subtilis ATCC 6633. The source says: (§1) Pathogenic microorganism composes of Escherichia coli (ATCC 25922), Staphylococcus aureus (ATCC 25923), Staphylococcus epidermidis (ATCC 12228), Bacillus subtilis (ATCC 6633), Bacillus cereus (ATCC 11778), Pseudomonas aeruginosa (ATCC 27853), Vibrio parahaemolyticus (ATCC 17802), Klebsiella pneumoniae (ATCC 27736), Acinetobacter baumannii (ATCC 19606), Enterobacter cloacae (ATCC 13047), Salmonella enterica (ATCC 13311), and Salmonella Typhi (ATCC 22842) were used in the experiments.
(§2) Bacteria were initially cultured on Tryptic Soy Agar (TSA) plates at 37°C for 12–16 hours. A single colony was transferred to Tryptic Soy Broth (TSB) and incubated at 37°C with gently agitation at 100 rpm, for an additional 12–16 hours. The bacterial concentration was adjusted to an optical density at 600 nm (OD600) of 0.05, corresponding to 4 x 10^7 CFU/mL, before being added to a 96-well plate (50 μL per well). Subsequently, 50 μL of protein hydrolysate or peptide was inoculated into each well at a final concentration of 100 μg/mL, and the mixture was incubated at 37°C with continuous shaking at 100 rpm for 6 hours. Wells with inoculated broth alone served as a negative control, while wells containing Ampicillin (100 μg/mL) served as a positive control. Following incubation, 25 μL of a 100 μg/mL MTT (3-(4,5-dimethylthiazol-2-yl)-2,5-diphenyltetrazolium bromide) solution was added to each well, thoroughly mixed, and incubated at room temperature for 4 hours. The optical density at 570 nm (OD570nm) was subsequently measured using a microplate reader (Synergy H1 Hybrid Multi-Mode Reader, Biotek, Winusky, VT, USA). The percentage of inhibition was calculated using the provided equation: [(OD570control–OD570test)/OD570control]×100 (1)

The test system of assay [2] is Enterobacter cloacae (ATCC 13047). Described as above. The following applies: ATCC13047, sample 100 μg/mL, 6 h at 37°C, MTT OD570 vs inoculated broth control, read-out: Inhibitory Percentage (Means±SD), Enterobacter cloacae ATCC 13047.
From the text: as §1, §2

For assay [3], the system named is Escherichia coli (ATCC 25922). The assay is described as above. The conditions noted are these: ATCC25922, sample 100 μg/mL, 6 h at 37°C, MTT OD570 vs inoculated broth control, read-out: Inhibitory Percentage (Means±SD), Escherichia coli ATCC 25922.
From the text: as §1, §2

For assay [4], the system named is Vibrio parahaemolyticus (ATCC 17802). Described as above. The conditions noted are these: ATCC17802, sample 100 μg/mL, 6 h at 37°C, MTT OD570 vs inoculated broth control, read-out: Inhibitory Percentage (Means±SD), Vibrio parahaemolyticus ATCC 17802.
From the text: as §1, §2

For assay [5], the system named is Bacillus cereus (ATCC 11778). The assay is described as above. The conditions noted are these: ATCC11778, sample 100 μg/mL, 6 h at 37°C, MTT OD570 vs inoculated broth control, read-out: Inhibitory Percentage (Means±SD), Bacillus cereus ATCC 11778.
From the text: as §1, §2

For assay [6], the system named is Salmonella Typhi (ATCC 22842). The assay is described as above. The following applies: Salmonella enterica, 6 h, read-out: Inhibitory Percentage (Means±SD), Salmonella Typhi ATCC 22842.
From the text: as §1, §2

Assay [7] concerns Klebsiella pneumoniae (ATCC 27736). The assay is described as above. The conditions noted are these: ATCC27736, sample 100 μg/mL, 6 h at 37°C, MTT OD570 vs inoculated broth control, read-out: Inhibitory Percentage (Means±SD), Klebsiella pneumoniae ATCC 27736.
From the text: as §1, §2

In assay [8] the test system is Pseudomonas aeruginosa (ATCC 27853). The description is as above. The following applies: ATCC27853, sample 100 μg/mL, 6 h at 37°C, MTT OD570 vs inoculated broth control, read-out: Inhibitory Percentage (Means±SD), Pseudomonas aeruginosa ATCC 27853.
From the text: as §1, §2

In assay [9] the test system is Acinetobacter baumannii (ATCC 19606). Nature of the assay: microbe, parasite or virus in culture. The conditions noted are these: Acinetobacter baumannii, ATCC19606; sample 100 μg/mL, 6 h at 37°C, MTT OD570 vs inoculated broth control; read-out: Inhibitory Percentage (Means±SD), Acinetobacter baumannii ATCC 19606.
From the text: as §1, §2

The subject of assay [10] is Staphylococcus epidermidis (ATCC 12228). The assay is described as follows: microbe, parasite or virus in culture. The following applies: Staphylococcus epidermidis, ATCC12228; sample 100 μg/mL, 6 h at 37°C, MTT OD570 vs inoculated broth control; read-out: Inhibitory Percentage (Means±SD), Staphylococcus epidermidis ATCC 12228.
From the text: as §1, §2

The subject of assay [11] is Staphylococcus aureus (ATCC 25923). The assay is described as follows: microbe, parasite or virus in culture. The conditions noted are these: Staphylococcus aureus, ATCC25923; sample 100 μg/mL, 6 h at 37°C, MTT OD570 vs inoculated broth control; read-out: Inhibitory Percentage (Means±SD), Staphylococcus aureus ATCC 25923.
From the text: as §1, §2

Assay [12] has as its system Salmonella enterica (ATCC 13311). The assay is described as follows: microbe, parasite or virus in culture. The conditions noted are these: Salmonella enterica, ATCC13311; sample 100 μg/mL, 6 h at 37°C, MTT OD570 vs inoculated broth control; read-out: Inhibitory Percentage (Means±SD), Salmonella enterica ATCC 13311.
From the text: as §1, §2

In the case of `CC1(C)S[C@@H]2[C@H](NC(=O)[C@H](N)c3ccccc3)C(=O)N2[C@H]1C(=O)O` [Ampicillin], the inhibition at 100 µg/mL in assay [1] is 96.5 ± 4.03%; in [2], 15.6 ± 0.89%; in [3] it was 82.1 ± 2.62%; in [4], -45.8 ± 1.54%; in assay [5] it was 35.9 ± 1.46%; in assay [6] it was 8.6 ± 0.22%. Moreover, the inhibition at 100 µg/mL is -19.1 ± 1.32% in assay [7]; 16.3 ± 0.87% in assay [8]; 42 ± 4.67% in [9]; 7.42 ± 0.23% in [10]; -2.72 ± 0.02% in assay [11]; 84.6 ± 4.34% in assay [12].
